# Source: patent US9562033B2, “Inhibitors of viral replication, their process of preparation and their therapeutical uses” (LABORATOIRE BIODIM, priority 2012, dated 2017)
# Tested on: NL4-3 strain of HIV-1
# Experiment: HIV-1 replication inhibition: cyto-protection of MT4 cells infected with NL4-3 virus (CellTiter-Glo viability assay)
# Type: cell-based
# Details: Human immunodeficiency virus 1, NL43, 120 h, concentration leading to 50% of cyto-protection, 5 days incubation
# Protocol: The antiviral activity, particularly against HIV, of compounds according to the invention is evaluated by the protocol described below.
# Preparation of Virus Stock of the NL4-3 Strain of HIV-1
# The virus was prepared as described in Lopez et al (Lopez et al, Proc Natl Acad Sci USA., 2006, 103(40):14947-52, by transfecting 2×10^6 293 T cells (CRL-1573, ATCC) with following modifications: 6 μg of NL4-3 proviral DNA molecular clone were mixed with Fugene 6 transfection reagent from Roche, and used according to manufacturer's instructions. Forty eight hours later, transfected cell supernatants were harvested, filtered through 0.45-μm-pore-size filters, quantified for HIV-1 p24 antigen by using a Innotest HIV antigen mAb assay (Ingen) according to manufacturer's instructions, and used in infection experiments.
# Preparation of Compounds:
# Serial dilutions of compounds to be tested were prepared in complete RPMI medium from 10 mM DMSO stock solutions, and distributed in a volume of 20 µl in 96 well Falcon 353072 Microtest™ tissue culture plate, in order to get 0.5% DMSO final concentration in each well, after the addition of infected cells. Control wells contained also 0.5% DMSO final concentration but no compound.
# MT4 cells (from the NIH AIDS Research and Reference Reagent Program) in RPMI complete medium were counted (10×10^6 cells per well in Falcon 353047 Multiwell™ 24 well) and infected for 2 hours at 37°, at a multiplicity of infection (moi) of 0.0001-0.00001. Cells were then centrifuged 3 min at 3000 rpm, and washed two times in 1 ml PBS to remove viruses that have not entered in cells. Infected cells were resuspended in complete RPMI at 1.25×10^6 cells/ml, and 80 µl of infected cells were distributed in each well containing compounds to be tested or control wells. The plates were then incubated at 37° for 5 days.
# Assay Used to Measure the Inhibition of HIV Replication by the Compounds
# (according to Gregg S. Jones et al., Antimicrobial Agents and Chemotherapy, 2009, 53 (3): 1194-1203).
# After 5 days of incubation, […] of CellTiter-Glo reagent (Promega Biosciences, Inc., Madison Wis., USA) were added to each well. Cell lysis was carried out at room temperature during 10 min, 150 μl of lysates were transferred in Packard Optiplate 96 well, and luminescence was read on a Fluoroskan (Thermo Scientific).
row,Compound,EC50
1,"Cc1sc(-c2cscn2)c(C2=CCC(C)(C)CC2)c1C(OC(C)(C)C)C(=O)O (stereo not drawn) [Example 54, 2-(tert-butoxy)-2-{2-methyl-4-[4,4-dimethylcyclohex-1-en-1-yl]-5-(thiazol-4-yl)thiophen-3-yl}acetic acid]",0.47 µM
2,"Cc1sc(-c2cncnc2)c(C2=CCC(C)(C)CC2)c1C(OC(C)(C)C)C(=O)O (stereo not drawn) [Example 25, 2-(tert-butoxy)-2-[4-(4,4-dimethylcyclohex-1-en-1-yl)-2-methyl-5-(pyrimidin-5-yl)thiophen-3-yl]acetic acid]",0.19 µM
3,"Cc1sc(-c2ccsc2)c(-c2ccc3c(c2)CCCO3)c1C(OC(C)(C)C)C(=O)O (stereo not drawn) [Example 20, 2-(tert-butoxy)-2-[4-(3,4-dihydro-2H-1-benzopyran-6-yl)-2-methyl-5-(thiophen-3-yl)thiophen-3-yl]acetic acid]",0.22 µM
4,"Cc1sc(-c2ccncc2)c(-c2ccc3c4c(ccnc24)CCO3)c1C(OC(C)(C)C)C(=O)O (stereo not drawn) [Example 74, 2-(tert-butoxy)-2-(2-methyl-4-(2,3-dihydropyrano[4,3,2-de]quinolin-7-yl)-5-(pyridin-4-yl)thiophen-3-yl)acetic acid]",6.8 µM
5,Cc1sc(-c2ccc(=O)n(CC3CC3)c2)c(C2=CCC(C)(C)CC2)c1C(OC(C)(C)C)C(=O)O (stereo not drawn) [Example 37],0.32 µM
6,"Cc1sc(-n2cccn2)c(C2=CCC(C)(C)CC2)c1C(OC(C)(C)C)C(=O)O (stereo not drawn) [Example 50, 2-(tert-butoxy)-2-[4-(4,4-dimethylcyclohex-1-en-1-yl)-2-methyl-5-(1H-pyrazol-1-yl)thiophen-3-yl]acetic acid]",0.77 µM
7,"Cc1sc(N2CCCC2=O)c(C2=CCC(C)(C)CC2)c1C(OC(C)(C)C)C(=O)O (stereo not drawn) [Example 68, 2-(tert-butoxy)-2-{2-methyl-4-[4,4-dimethylcyclohex-1-en-1-yl]-5-(N-pyrrolidinone)thiophen-3-yl}acetic acid]",1.9 µM
8,"Cc1sc(-c2cnn(C)c2)c(C2=CCC(C(C)C)CC2)c1C(OC(C)(C)C)C(=O)O (stereo not drawn) [Example 26, 2-(tert-butoxy)-2-{2-methyl-4-[4-(propan-2-yl)cyclohex-1-en-1-yl]-5-(N-methylpyrazol-4-yl)thiophen-3-yl}acetic acid]",0.83 µM
9,"Cc1sc(-c2ccncc2)c(C2=CCC(C)(C)CC2)c1[C@H](OC(C)(C)C)C(=O)O [Example 11, (2S)-2-(tert-butoxy)-2-[4-(4,4-dimethylcyclohex-1-en-1-yl)-2-methyl-5-(pyridin-4-yl)thiophen-3-yl]acetic acid]",0.032 µM
10,"CC(C)(C)OC(C(=O)O)c1c(CO)sc(-c2ccncc2)c1-c1ccc2c(c1)CCCO2 (stereo not drawn) [Example 38, 2-(tert-butoxy)-2-[4-(3,4-dihydro-2H-1-benzopyran-6-yl)-2-(hydroxymethyl)-5-(pyridin-4-yl)thiophen-3-yl]acetic acid]",2.3 µM
11,"CC(=O)NCc1ccc(-c2sc(C)c(C(OC(C)(C)C)C(=O)O)c2-c2ccc3c(c2)CCCO3)cc1 (stereo not drawn) [Example 21, 2-(tert-butoxy)-2-[4-(3,4-dihydro-2H-1-benzopyran-6-yl)-5-[4-(acetamidomethyl)phenyl]-2-methylthiophen-3-yl]acetic acid]",0.58 µM
12,Cc1sc(-c2cnc3c(c2)CCCO3)c(C2=CCC(C)(C)CC2)c1C(OC(C)(C)C)C(=O)O (stereo not drawn) [Example 7],0.081 µM
13,"Cc1sc(-c2ccnc(OCc3ccccc3)c2)c(-c2ccc3c(c2)CCCO3)c1C(OC(C)(C)C)C(=O)O (stereo not drawn) [Example 17, 2-{5-[2-(benzyloxy)pyridin-4-yl]-4-(3,4-dihydro-2H-1-benzopyran-6-yl)-2-methylthiophen-3-yl}-2-(tert-butoxy)acetic acid]",0.65 µM
14,"Cc1sc(-c2ccoc2)c(-c2ccc3c(c2)CCCO3)c1C(OC(C)(C)C)C(=O)O (stereo not drawn) [Example 16, 2-(tert-butoxy)-2-[4-(3,4-dihydro-2H-1-benzopyran-6-yl)-5-(furan-3-yl)-2-methylthiophen-3-yl]acetic acid]",0.82 µM
15,"COc1ccc(-c2sc(C)c(C(OC(C)(C)C)C(=O)O)c2-c2ccc3c(c2)CCCO3)cn1 (stereo not drawn) [Example 79, 2-(tert-butoxy)-2-[4-(3,4-dihydro-2H-1-benzopyran-6-yl)-5-(6-methoxypyridin-3-yl)-2-methylthiophen-3-yl]acetic acid]",1.5 µM
16,"Cc1sc(-c2ccc(F)cc2)c(-c2ccc3c(c2)CCCO3)c1C(OC(C)(C)C)C(=O)O (stereo not drawn) [Example 2, 2-(tert-butoxy)-2-[4-(3,4-dihydro-2H-1-benzopyran-6-yl)-5-(4-fluorophenyl)-2-methylthiophen-3-yl]acetic acid]",0.19 µM
17,"Cc1sc(-c2cnn(C)c2)c(-c2ccc3c(c2)CCCO3)c1C(OC(C)(C)C)C(=O)O (stereo not drawn) [Example 88, 2-(tert-butoxy)-2-[4-(3,4-dihydro-2H-1-benzopyran-6-yl)-2-methyl-5-(1-methyl-1H-pyrazol-4-yl)thiophen-3-yl]acetic acid]",1.6 µM
18,"Cc1cccc(-c2sc(C)c(C(OC(C)(C)C)C(=O)O)c2C2=CCC(C)(C)CC2)n1 (stereo not drawn) [Example 73, 2-(tert-butoxy)-2-{2-methyl-4-[4,4-dimethylcyclohex-1-en-1-yl]-5-(6-methylpyridin-2-yl)thiophen-3-yl}acetic acid]",6.9 µM
19,"Cc1sc(-c2ccccc2)c(-c2ccc3c(c2)CCCO3)c1C(OC(C)(C)C)C(=O)O (stereo not drawn) [Example 1, 2-(tert-butoxy)-2-[4-(3,4-dihydro-2H-1-benzopyran-6-yl)-2-methyl-5-phenylthiophen-3-yl]acetic acid]",0.26 µM
20,"Cc1csnc1-c1sc(C)c(C(OC(C)(C)C)C(=O)O)c1C1=CCC(C)(C)CC1 (stereo not drawn) [Example 89, 2-(tert-butoxy)-2-{2-methyl-4-[4,4-dimethylcyclohex-1-en-1-yl]-5-(4-methylisothiazol-3-yl)thiophen-3-yl}acetic acid]",0.86 µM
21,"Cc1sc(C2=CCCC2)c(C2=CCC(C)(C)CC2)c1C(OC(C)(C)C)C(=O)O (stereo not drawn) [Example 59, 2-(tert-butoxy)-2-[4-(4,4-dimethylcyclohex-1-en-1-yl)-5-(cyclopenten-1-yl)-2-methylthiophen-3-yl]acetic acid]",0.67 µM
22,"Cc1sc(-c2ccns2)c(C2=CCC(C)(C)CC2)c1C(OC(C)(C)C)C(=O)O (stereo not drawn) [Example 63, 2-(tert-butoxy)-2-{2-methyl-4-[4,4-dimethylcyclohex-1-en-1-yl]-5-(isothiazol-5-yl)thiophen-3-yl}acetic acid]",0.95 µM
23,"Cc1sc(C2=CCCCC2)c(C2=CCC(C)(C)CC2)c1C(OC(C)(C)C)C(=O)O (stereo not drawn) [Example 57, 2-(tert-butoxy)-2-[4-(4,4-dimethylcyclohex-1-en-1-yl)-5-(cyclohexen-1-yl)-2-methylthiophen-3-yl]acetic acid]",1.2 µM
24,"Cc1sc(-c2ccccc2)c(-c2ccc3c4c(ccnc24)CCO3)c1C(OC(C)(C)C)C(=O)O (stereo not drawn) [Example 61, 2-(tert-butoxy)-2-[2-methyl-4-(2,3-dihydropyrano[4,3,2-de]quinolin-7-yl)-5-phenyl-thiophen-3-yl]acetic acid]",0.21 µM
25,"COC1(C)CC=C(c2c(-c3cnc4c(c3)CCCO4)sc(C)c2C(OC(C)(C)C)C(=O)O)CC1 (stereo not drawn) [Example 82, 2-(tert-butoxy)-2-[4-(4-methoxy-4-methylcyclohex-1-en-1-yl)-2-methyl-5-{2H,3H,4H-pyrano[2,3-b]pyridin-6-yl}thiophen-3-yl]acetic acid]",1 µM
26,"Cc1sc(-c2cc(C(F)(F)F)nn2C)c(-c2ccc3c(c2)CCCO3)c1C(OC(C)(C)C)C(=O)O (stereo not drawn) [Example 83, 2-(tert-butoxy)-2-[4-(3,4-dihydro-2H-1-benzopyran-6-yl)-2-methyl-5-[1-methyl-3-(trifluoromethyl)-1H-pyrazol-5-yl]thiophen-3-yl]acetic acid]",1.7 µM
27,"Cc1sc(-c2ccncc2)c(C2=CCC(C(C)C)CC2)c1C(OC(C)(C)C)C(=O)O (stereo not drawn) [Example 6, 2-(tert-butoxy)-2-{2-methyl-4-[4-(propan-2-yl)cyclohex-1-en-1-yl]-5-(pyridin-4-yl)thiophen-3-yl}acetic acid]",0.16 µM
28,"Cc1sc(-c2ccnc3ccccc23)c(-c2ccc3c(c2)CCCO3)c1C(OC(C)(C)C)C(=O)O (stereo not drawn) [Example 15, 2-(tert-butoxy)-2-[4-(3,4-dihydro-2H-1-benzopyran-6-yl)-2-methyl-5-(quinolin-4-yl)thiophen-3-yl]acetic acid]",0.41 µM
29,"Cc1sc(-c2ccccc2C(N)=O)c(C2=CCC(C)(C)CC2)c1C(OC(C)(C)C)C(=O)O (stereo not drawn) [Example 55, 2-(tert-butoxy)-2-{2-methyl-4-[4,4-dimethylcyclohex-1-en-1-yl]-5-(carboxamidephen-2-yl)thiophen-3-yl}acetic acid]",0.09 µM
30,CCCc1sc(C)c(C(OC(C)(C)C)C(=O)O)c1-c1ccc2c(c1)CCCO2 (stereo not drawn) [Example 65],1.4 µM
